In patent publication US6498125B2, “Pyridine ketones useful as herbicides” (Syngenta Participations AG, priority 1998, dated 2002):

Key:
Type in all cases: in vivo
Amaranthus [1] = test: Example B3: pre-emergence action, 250 g/ha; conditions: 250 g of AS/ha, sprayed immediately after sowing, 3 weeks, nine-level scale 1=complete damage, 9=no effect
Procedure: (§1) Monocotyledonous and dicotyledonous test plants are sown in pots in standard soil. Immediately after sowing, the test substances are sprayed on (500 l of spray liquorlha) as an aqueous suspension, prepared from a wettable powder WP10 corresponding to the desired dosage (250 g of a.i./ha).
(§2) The test plants are then grown under optimum conditions in a greenhouse. After a test period of 3 weeks, the test is evaluated with a nine -evel scale of ratings (1=complete damage, 9=no effect). Ratings of 1 to 4 (in particular 1 to 3) mean good to very good herbicidal action, 7-9 mean good tolerance.

Kochia [2] = test: Example B3: pre-emergence action, 250 g/ha; conditions: 250 g of AS/ha, sprayed immediately after sowing, 3 weeks, nine-level scale 1=complete damage, 9=no effect
Procedure: as §1, §2

Chenopodium [3] = test: Example B3: pre-emergence action, 250 g/ha; conditions: 250 g of AS/ha, sprayed immediately after sowing, 3 weeks, nine-level scale 1=complete damage, 9=no effect
Procedure: as §1, §2

Abutilon [4] = test: Example B3: pre-emergence action, 250 g/ha; conditions: 250 g of AS/ha, sprayed immediately after sowing, 3 weeks, nine-level scale 1=complete damage, 9=no effect
Procedure: as §1, §2

Stellaria [5] = test: Example B3: pre-emergence action, 250 g/ha; conditions: 250 g of AS/ha, sprayed immediately after sowing, 3 weeks, nine-level scale 1=complete damage, 9=no effect
Procedure: as §1, §2

Sida [6] = test: Example B3: pre-emergence action, 250 g/ha; conditions: 250 g of AS/ha, sprayed immediately after sowing, 3 weeks, nine-level scale 1=complete damage, 9=no effect
Procedure: as §1, §2

Amaranthus [7] = test: Example B4: post-emergence action, 250 g/ha; conditions: 250 g of AS/ha, sprayed in the 2-3-leaf stage, 0.2% X77, 3 weeks, nine-level scale 1=complete damage, 9=no effect
Procedure: (§3) Monocotyledonous and dicotyledonous test plants are sown in pots in standard soil. In the 2-3- leaf stage of the test plants, the test substances are sprayed on (500 l of spray liquor/ha) as an aqueous suspension, prepared from a wettable powder WP10 according to the desired dosage (250 g of a.i./ha). 0.2% of X77 is added as wetting agent to the spray liquor. The test plants are then grown under optimum conditions in a greenhouse.
(§4) After a test period of 3 weeks, the test is evaluated with a nine4evel scale of ratings (1=complete damage, 9=no effect). Ratings of 1 to 4 (in particular 1 to 3) mean good to very good herbicidal action, 7-9 mean good tolerance.

Kochia [8] = test: Example B4: post-emergence action, 250 g/ha; conditions: 250 g of AS/ha, sprayed in the 2-3-leaf stage, 0.2% X77, 3 weeks, nine-level scale 1=complete damage, 9=no effect
Procedure: as §3, §4

Chenopodium [9] = test: Example B4: post-emergence action, 250 g/ha; conditions: 250 g of AS/ha, sprayed in the 2-3-leaf stage, 0.2% X77, 3 weeks, nine-level scale 1=complete damage, 9=no effect
Procedure: as §3, §4

Abutilon [10] = test: Example B4: post-emergence action, 250 g/ha; conditions: 250 g of AS/ha, sprayed in the 2-3-leaf stage, 0.2% X77, 3 weeks, nine-level scale 1=complete damage, 9=no effect
Procedure: as §3, §4

Stellaria [11] = test: Example B4: post-emergence action, 250 g/ha; conditions: 250 g of AS/ha, sprayed in the 2-3-leaf stage, 0.2% X77, 3 weeks, nine-level scale 1=complete damage, 9=no effect
Procedure: as §3, §4

Sida [12] = test: Example B4: post-emergence action, 250 g/ha; conditions: 250 g of AS/ha, sprayed in the 2-3-leaf stage, 0.2% X77, 3 weeks, nine-level scale 1=complete damage, 9=no effect
Procedure: as §3, §4

SMILES	Pre-emergence action: Amaranthus (rating) (Amaranthus [1])	Pre-emergence action: Kochia (rating) (Kochia [2])	Pre-emergence action: Chenopodium (rating) (Chenopodium [3])	Pre-emergence action: Abutilon (rating) (Abutilon [4])	Pre-emergence action: Stellaria (rating) (Stellaria [5])	Pre-emergence action: Sida (rating) (Sida [6])	Post-emergence action: Amaranthus (rating) (Amaranthus [7])	Post-emergence action: Kochia (rating) (Kochia [8])	Post-emergence action: Chenopodium (rating) (Chenopodium [9])	Post-emergence action: Abutilon (rating) (Abutilon [10])	Post-emergence action: Stellaria (rating) (Stellaria [11])	Post-emergence action: Sida (rating) (Sida [12])
O=C(C1=C(O)C2CCC(C2)C1=O)c1ccc(Cl)nc1C(F)(F)F (stereo not drawn) [Compound 1.355]	1	1	1	1	2	2	2	3	2	2	3	2
CC[S+]([O-])c1ccc(C(=O)C2=C(O)C3CCC(C3)C2=O)c(C(F)(F)F)n1 (stereo not drawn) [Compound 1.343]	4	9	1	1	5	3	2	3	2	3	3	9
CS(=O)(=O)c1ccc(C(=O)C2=C(O)C3CCC(C3)C2=O)c(C(F)(F)F)n1 (stereo not drawn) [Compound 1.339]	1	7	1	2	1	2	2	1	3	2	3	4
CSc1ccc(C(=O)C2=C(O)C3CCC(C3)C2=O)c(C(F)(F)F)n1 (stereo not drawn) [Compound 1.335]	2	5	1	1	7	2	2	2	2	3	3	2
O=C(C1=C(O)C2CCC(C2)C1=O)c1ccc(OCC(F)(F)F)nc1C(F)(F)F (stereo not drawn) [Compound 1.349]	3	4	1	1	5	2	2	2	2	2	3	2
